Assay results from PMC8436411 (ACS Medicinal Chemistry Letters, 2021).
In brackets after ≈: the same amount, converted by molar mass. Several values for one entry are separate records, joined by “and”; a condition that tells them apart may be missing. Identical values can stand only once. Like-named read-outs stand apart in the source and are kept apart here.

Key:
[1] = tested on: S. aureus (ATCC 29213); test: microbe, parasite or virus in culture; conditions: Staphylococcus aureus, ATCC29213, read-out: MIC S. aureus (ATCC 29213)
Method: (§1) The in vitro antibacterial activity, expressed as minimum inhibitory concentration (MIC), was determined against broad spectrum of bacteria, including Gram-positive (Staphylococcus aureus, methicillin-resistant Staphylococcus aureus, Streptococcus agalactiae, and Enterococcus faecalis) and Gram-negative strains (Escherichia coli, Salmonella alachua, Pseudomonas aeruginosa, and Klebsiella pneumoniae), enriched with various MRSA strains resistant to various antibiotics as well as E. coli strains with increased membrane permeability and lack of efflux pump, as well. […]
(§2) The minimum inhibitory concentrations (MICs) were determined using the broth micro-dilution method in 96-well plate format according to the Clinical and Laboratory Standards Institute […]
(§3) guidelines8 and European Committee on Antimicrobial Susceptibility Testing recommendations9. The bacterial suspension of the specific bacterial strain equivalent to the 0.5 McFarland turbidity standard was diluted with cation-adapted Mueller Hinton broth with TES (Thermo Fisher Scientific) to obtain a […]
(§4) The compounds dissolved in DMSO and inoculum were mixed together and incubated for 20 h at 35 °C.

[2] = tested on: E. coli D22; test: microbe, parasite or virus in culture; conditions: Escherichia coli
Method: as §1, §2, §3, §4

[3] = tested on: E. coli (ATCC 25922); test: microbe, parasite or virus in culture; conditions: Escherichia coli, ATCC25922, read-out: MIC E. coli (ATCC 25922)
Method: as §1, §2, §3, §4

[4] = tested on: Streptococcus agalactiae RDK 047 (QA-990/02); test: microbe, parasite or virus in culture
Method: as §1, §2, §3, §4

[5] = tested on: MRSA (QA-12.1); test: microbe, parasite or virus in culture; conditions: Staphylococcus aureus, read-out: MIC MRSA (QA-12.1)
Method: as §1, §2, §3, §4

[6] = tested on: MRSA (QA-11.7); test: microbe, parasite or virus in culture; conditions: Staphylococcus aureus, read-out: MIC MRSA (QA-11.7)
Method: as §1, §2, §3, §4

[7] = tested on: Enterococcus faecalis DRK 057 (ATCC 29212); test: microbe, parasite or virus in culture
Method: as §1, §2, §3, §4

[8] = tested on: Salmonella alachua RDK 030c (QA-1482/04); test: microbe, parasite or virus in culture
Method: as §1, §2, §3, §4

[9] = tested on: Pseudomonas aeruginosa RDK 184 (DSM 939); test: microbe, parasite or virus in culture
Method: as §1, §2, §3, §4

[10] = tested on: E. coli N43 (CGSC no. 5583); test: microbe, parasite or virus in culture; conditions: Escherichia coli
Method: as §1, §2, §3, §4

[11] = tested on: Klebsiella pneumoniae; test: microbe, parasite or virus in culture
Method: as §1, §2, §3, §4

[12] = biological target: Human topoisomerase IIα (Homo sapiens, UniProt P11388); test: Human topoisomerase IIα residual activity; assay type: biochemical; conditions: residual activity at 10 μM compound; mean ± SD, two independent experiments; read-out: Human topoisomerase IIα (%RA)
Sequence of Human topoisomerase IIα (P11388 whole entry): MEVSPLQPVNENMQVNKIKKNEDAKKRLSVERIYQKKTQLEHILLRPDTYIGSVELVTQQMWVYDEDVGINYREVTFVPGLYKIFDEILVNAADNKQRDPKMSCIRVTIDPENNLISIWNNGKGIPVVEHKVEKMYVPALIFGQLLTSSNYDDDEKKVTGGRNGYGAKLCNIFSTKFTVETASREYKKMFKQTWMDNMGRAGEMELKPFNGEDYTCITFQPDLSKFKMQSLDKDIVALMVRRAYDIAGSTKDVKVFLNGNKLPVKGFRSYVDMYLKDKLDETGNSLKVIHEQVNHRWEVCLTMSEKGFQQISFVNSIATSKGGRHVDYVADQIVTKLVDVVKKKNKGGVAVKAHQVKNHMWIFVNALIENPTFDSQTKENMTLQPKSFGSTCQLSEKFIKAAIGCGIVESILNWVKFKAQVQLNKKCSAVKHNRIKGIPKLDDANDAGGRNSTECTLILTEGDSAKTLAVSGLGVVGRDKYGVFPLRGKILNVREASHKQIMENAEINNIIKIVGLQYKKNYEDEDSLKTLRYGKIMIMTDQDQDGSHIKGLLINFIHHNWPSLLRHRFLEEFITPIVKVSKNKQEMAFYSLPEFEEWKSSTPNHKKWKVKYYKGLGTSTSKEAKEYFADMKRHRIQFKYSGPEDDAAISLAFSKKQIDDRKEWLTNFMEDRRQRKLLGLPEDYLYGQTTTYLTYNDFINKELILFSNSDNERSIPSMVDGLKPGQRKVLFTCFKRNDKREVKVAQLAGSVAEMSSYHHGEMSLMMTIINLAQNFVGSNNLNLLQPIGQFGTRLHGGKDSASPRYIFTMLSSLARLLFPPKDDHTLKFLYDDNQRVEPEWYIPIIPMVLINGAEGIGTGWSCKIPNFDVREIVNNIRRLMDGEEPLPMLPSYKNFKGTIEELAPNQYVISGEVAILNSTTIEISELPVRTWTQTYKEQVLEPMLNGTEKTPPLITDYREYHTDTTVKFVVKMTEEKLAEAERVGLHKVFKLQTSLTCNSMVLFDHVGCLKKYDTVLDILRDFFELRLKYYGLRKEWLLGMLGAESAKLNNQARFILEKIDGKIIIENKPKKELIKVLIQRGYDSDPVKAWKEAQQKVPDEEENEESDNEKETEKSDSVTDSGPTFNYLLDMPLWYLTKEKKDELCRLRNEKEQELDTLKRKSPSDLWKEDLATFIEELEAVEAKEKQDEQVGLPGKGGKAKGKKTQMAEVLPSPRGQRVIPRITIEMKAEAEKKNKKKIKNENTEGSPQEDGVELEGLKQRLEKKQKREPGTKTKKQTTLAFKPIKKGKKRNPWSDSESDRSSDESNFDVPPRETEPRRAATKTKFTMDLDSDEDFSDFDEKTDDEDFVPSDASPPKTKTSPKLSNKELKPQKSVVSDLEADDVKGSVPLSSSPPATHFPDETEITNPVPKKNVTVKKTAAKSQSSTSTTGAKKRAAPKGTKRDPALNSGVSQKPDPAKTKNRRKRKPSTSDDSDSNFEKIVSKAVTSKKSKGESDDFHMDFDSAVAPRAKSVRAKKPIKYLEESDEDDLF

[13] = biological target: T1, S. aureus DNA gyrase (Staphylococcus aureus, UniProt P20831); test: DNA gyrase supercoiling inhibition assay (S. aureus); assay type: biochemical; conditions: mean of two independent measurements ± SD
T1 construct: purchased Inspiralis (Norwich, UK)
T1 sequence (P20831 whole entry, looked up): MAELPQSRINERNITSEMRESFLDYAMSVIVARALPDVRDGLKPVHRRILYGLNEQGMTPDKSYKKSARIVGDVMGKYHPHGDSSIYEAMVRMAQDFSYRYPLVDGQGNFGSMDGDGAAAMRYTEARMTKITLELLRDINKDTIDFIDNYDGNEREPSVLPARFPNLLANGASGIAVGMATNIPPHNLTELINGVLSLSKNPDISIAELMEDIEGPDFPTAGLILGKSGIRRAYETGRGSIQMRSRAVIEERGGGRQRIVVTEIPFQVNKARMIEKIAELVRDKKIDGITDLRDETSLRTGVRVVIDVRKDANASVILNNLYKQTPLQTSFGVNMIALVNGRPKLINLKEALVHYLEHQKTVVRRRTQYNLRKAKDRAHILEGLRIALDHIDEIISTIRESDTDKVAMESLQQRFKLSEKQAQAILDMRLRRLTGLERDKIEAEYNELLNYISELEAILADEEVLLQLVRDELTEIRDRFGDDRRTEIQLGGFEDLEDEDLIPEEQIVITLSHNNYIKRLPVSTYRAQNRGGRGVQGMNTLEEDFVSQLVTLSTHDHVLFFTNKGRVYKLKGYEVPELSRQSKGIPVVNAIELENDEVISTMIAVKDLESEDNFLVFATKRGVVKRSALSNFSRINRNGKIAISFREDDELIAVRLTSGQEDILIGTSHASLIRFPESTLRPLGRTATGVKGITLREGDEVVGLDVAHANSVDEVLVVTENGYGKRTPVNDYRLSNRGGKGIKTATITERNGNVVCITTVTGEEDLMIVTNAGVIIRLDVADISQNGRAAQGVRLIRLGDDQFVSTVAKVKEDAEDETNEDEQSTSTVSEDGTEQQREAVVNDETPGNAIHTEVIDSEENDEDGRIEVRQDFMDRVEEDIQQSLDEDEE
Method: We synthesized and biologically evaluated ten new compounds. We determined their inhibitory activity, expressed as IC50 values, on both Gram-positive S. aureus and Gram-negative E. coli bacterial enzymes (DNA gyrase and topo IV), respectively. The in vitro antibacterial activity, expressed as minimum inhibitory concentration (MIC), was determined against broad spectrum of bacteria, including Gram-positive (Staphylococcus aureus, methicillin-resistant Staphylococcus aureus, Streptococcus agalactiae, and Enterococcus faecalis) and Gram-negative strains (Escherichia coli, Salmonella alachua, Pseudomonas aeruginosa, and Klebsiella pneumoniae), enriched with various MRSA strains resistant to various antibiotics as well as E. coli strains with increased membrane permeability and lack of efflux pump, as well. Furthermore, the selectivity of compounds for bacterial enzyme compared to the orthologous human topoisomerase IIα was also considered. The in vitro safety profile was determined by cytotoxicity assessment on human umbilical vein endothelial cell lines (HUVEC) and HepG2 liver cancer cell lines.
Determination of DNA gyrase and topoisomerase IV inhibitory activities
To determine the IC50 values of the compounds, a Gyrase Supercoiling High Throughput Plate assay kit and a TopoIV Relaxation High Throughput Plate assay kit, commercially available from Inspiralis (Norwich, UK), were used for S. aureus and E. coli. The assays were performed on black streptavidin-coated 96-well microtiter plates (Thermo Scientific Pierce, Norwich, UK) and the wells were first […]
BSA and 0.05% [v/v] Tween-20). Biotinylated oligonucleotide diluted with the wash buffer was then immobilized in each well and the excess was removed with the wash buffer. 1.5 U of the enzyme S. aureus or E. coli DNA gyrase (topoIV) was incubated together with 0.75 μg of relaxed (supercoiled) pNO1 plasmid as substrate in the presence of 3 μl inhibitor solution in 10% DMSO and 0.008% Tween-20 at 37°C for 30 min in a final reaction volume of 30 μl in the assay buffer (S. aureus DNA gyrase: 40 mM HEPES.KOH (pH 7.6), 10 mM magnesium acetate, 10 mM DTT, 2 mM ATP, 500 mM potassium glutamate and 0.05 mg/ml albumin; E. coli DNA gyrase: 35 mM Tris.HCl (pH 7.5), 24 […]
mg/ml albumin; S. aureus topo IV: 50 mM Tris.HCl (7.5), 5 mM MgCl 2, 5 mM DTT, 1.5 mM ATP, 350 mM potassium glutamate and 0.05 mg/ml albumin; E. coli topo IV: 40 mM HEPES.KOH (pH 7.6), 100 mM potassium glutamate, 10 mM magnesium acetate, 10 mM DTT, 1 mM ATP and 50 μg/ml albumin). The reaction was stopped by adding the TF buffer (50 mM NaOAc (pH 4.7), 50 mM NaCl and 50 mM MgCl2) to allow triplex formation (biotin oligonucleotide plasmid) for another 30 min. Finally, the unbound plasmid was washed off using the TF buffer and the Promega Diamond dye was added to T10 buffer (10 mM Tris-HCl (pH 8.0), 1 mM EDTA) solution. After 15 min the solution […]
Two inhibitor concentrations of 100 and 1 μM were used for pre-screening. The IC 50 values […]
(IC50) was calculated by nonlinear regression-based fitting of the inhibition curves using the log [inhibitor] versus response-variable slope (four parameters) – symmetrical equation, in GraphPad Prism 6.0 software (GraphPad Software, CA, USA). The IC50 value represents the average of two independent measurements.
The minimum inhibitory concentrations (MICs) were determined using the broth micro-dilution method in 96-well plate format according to the Clinical and Laboratory Standards Institute

[14] = read-out: MIC S. agalactiae RDK 047 (QA-990/02)
[15] = read-out: MIC Streptococcus agalactiae RDK 047 (QA-990/02)
[16] = ATCC29212, read-out: MIC E. faecalis DRK 057 (ATCC 29212)
[17] = ATCC29212, read-out: MIC Enterococcus faecalis DRK 057 (ATCC 29212)
[18] = read-out: MIC S. alachua RDK 030c (QA-1482/04)
[19] = read-out: MIC Salmonella alachua RDK 030c (QA-1482/04)
[20] = DSM939, read-out: MIC P. aeruginosa RDK 184 (DSM 939)
[21] = DSM939, read-out: MIC Pseudomonas aeruginosa RDK 184 (DSM 939)
[22] = read-out: MIC E. coli N43 (CGSC no. 5583)
[23] = read-out: MIC E. coli N43 (CGSC# 5583)
[24] = read-out: MIC Klebsiella pneumoniae

SMILES	MIC [1]	MIC ([2]; D22, read-out: MIC E. coli D2) [µM]	MIC ([2]; D22, read-out: MIC E. coli D22) [µg/mL]	MIC [3]	MIC [4, 14] [µM]	MIC [4, 15] [µg/mL]	MIC [5]	MIC [6]	MIC [7, 16] [µM]	MIC [7, 17] [µg/mL]	MIC [8, 18] [µM]	MIC [8, 19] [µg/mL]	MIC [9, 20] [µM]	MIC [9, 21] [µg/mL]	MIC [10, 22] [µg/mL]	MIC [10, 23] [µM]	MIC ([11]; read-out: MIC K. pneumoniae) [µM]	MIC [11, 24] [µg/mL]	remaining activity at 10 µM [12] [%]	IC50 [13] [nM]
COc1ccc2nccc(CCN3CCC(NCc4ccc(Cl)c(F)c4)CC3)c2n1 [Compound 4]	0.072 µM and 0.031 µg/mL	0.583	0.25	4.66 µM and 2 µg/mL	2.33	1	0.072 µM and 0.031 µg/mL	0.072 µM and 0.031 µg/mL	4.66	2	18.7	8	149	64	0.062	0.145	74.6	32	99.2 ± 0.52	6 ± 1
COc1ccc2nccc(CCN3CCC(NCc4ccc(Br)c(F)c4)CC3)c2n1 [Compound 5]	0.017 µM and 0.008 µg/mL	0.131	0.062	2.11 µM and 1 µg/mL	4.22	2	0.065 µM and 0.031 µg/mL	0.034 µM and 0.016 µg/mL	1.06	0.5	8.45	4	67.6	32	0.031	0.065	33.8	16	98.46 ± 0.45	7
COc1ccc2nccc(CCN3CCC(NCc4cc(F)c(Cl)c(F)c4)CC3)c2n1 [Compound 7]	0.018 µM and 0.008 µg/mL	0.069	0.031	1.12 µM and 0.5 µg/mL	1.12	0.5	0.069 µM and 0.031 µg/mL	0.069 µM and 0.031 µg/mL	1.12	0.5	4.47	2	35.8	16	0.062	0.139	17.9	8	99.43 ± 0.57	14 ± 2
COc1ccc2nccc(CCN3CCC(NCc4cc(F)c(Br)cc4F)CC3)c2n1 [Compound 9]	0.016 µM and 0.008 µg/mL	0.509	0.25	2.04 µM and 1 µg/mL	0.509	0.25	0.033 µM and 0.016 µg/mL	0.033 µM and 0.016 µg/mL	1.02	0.5	32.6	16	260	128	0.062	0.126	130	64	98.83 ± 0.11	9 ± 1
COc1ccc2nccc(CCN3CCC(NCc4ccc(Br)c(F)c4F)CC3)c2n1 [Compound 10]	0.063 µM and 0.031 µg/mL	1.02	0.5	8.14 µM and 4 µg/mL	4.07	2	0.126 µM and 0.062 µg/mL	0.126 µM and 0.062 µg/mL	4.07	2	32.6	16	> 260	> 128	0.125	0.254	130	64	98.11 ± 0.91	9
COc1ccc2nccc(CCN3CCC(NCc4ccc(I)c(F)c4F)CC3)c2n1 [Compound 11]	0.015 µM and 0.008 µg/mL	0.23	0.125	3.71 µM and 2 µg/mL	0.929	0.5	0.115 µM and 0.062 µg/mL	0.058 µM and 0.031 µg/mL	0.929	0.5	14.9	8	119	64	0.031	0.058	59.4	32	94.9 ± 5.67	9 ± 1
COc1ccc2nccc(CCN3CCC(NCc4ccc(Cl)nc4)CC3)c2n1 [Compound 12]	2.43 µM and 1 µg/mL	9.71	4	77.7 µM and 32 µg/mL	155	64	4.86 µM and 2 µg/mL	2.43 µM and 1 µg/mL	77.7	32	> 311	> 128	> 311	> 128	8	19.4	> 311	> 128	99.7 ± 1.48	283 ± 9
O=c1ccc2ncc(=O)n3c2n1C[C@H]3CN1CCC(NCc2cc3c(cn2)OCCC3)CC1 [Gepotidacin, gepotidacin, reference compound]	0.279 µM (≈ 0.125 µg/mL)	0.279		2.23 µM and 1 µg/mL			0.279 µM and 0.125 µg/mL	0.138 µM and 0.062 µg/mL			8.92	4	17.8	8	0.016	0.036	17.8	8		
